Results on 1 compound are retold here after patent US20260108527A1, “POLO LIKE KINASE 4 INHIBITORS” (ORIC Pharmaceuticals, Inc., priority 2022, published 2026).

For one assay, the target named is T1, human recombinant PLK4 (Homo sapiens, UniProt O00444).
T1 construct: purchased ThermoFisher PV6396
T1 sequence (O00444 1-970): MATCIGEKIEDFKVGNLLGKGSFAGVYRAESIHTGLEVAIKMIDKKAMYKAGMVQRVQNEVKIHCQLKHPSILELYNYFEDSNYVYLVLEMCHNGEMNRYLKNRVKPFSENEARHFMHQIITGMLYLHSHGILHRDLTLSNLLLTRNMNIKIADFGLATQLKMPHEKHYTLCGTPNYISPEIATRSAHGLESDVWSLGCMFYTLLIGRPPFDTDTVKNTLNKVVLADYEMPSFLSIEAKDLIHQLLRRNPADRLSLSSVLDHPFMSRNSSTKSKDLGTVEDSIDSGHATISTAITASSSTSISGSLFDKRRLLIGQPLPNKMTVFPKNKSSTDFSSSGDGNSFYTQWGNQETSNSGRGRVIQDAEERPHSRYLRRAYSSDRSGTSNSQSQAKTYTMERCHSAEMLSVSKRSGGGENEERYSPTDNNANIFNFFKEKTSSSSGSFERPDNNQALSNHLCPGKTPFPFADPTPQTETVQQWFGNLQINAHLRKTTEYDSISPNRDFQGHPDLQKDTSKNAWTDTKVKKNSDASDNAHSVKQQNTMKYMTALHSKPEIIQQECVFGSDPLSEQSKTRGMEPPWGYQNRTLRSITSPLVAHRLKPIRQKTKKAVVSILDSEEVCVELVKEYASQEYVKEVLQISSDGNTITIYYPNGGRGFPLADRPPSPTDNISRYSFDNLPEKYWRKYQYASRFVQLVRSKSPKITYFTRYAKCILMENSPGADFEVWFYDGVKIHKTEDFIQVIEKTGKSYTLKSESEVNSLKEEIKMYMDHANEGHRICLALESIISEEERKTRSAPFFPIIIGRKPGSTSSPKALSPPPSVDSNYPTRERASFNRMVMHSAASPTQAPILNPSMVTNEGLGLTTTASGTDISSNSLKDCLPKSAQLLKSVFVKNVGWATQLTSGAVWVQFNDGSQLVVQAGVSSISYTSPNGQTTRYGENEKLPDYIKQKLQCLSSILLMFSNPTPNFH
The experiment in a line: PLK4 Biochemical Assay (ADP-Glo). The following applies: 0.5 nM PLK4, 8.0 μM ATP, 4.7 μM MBP, 6 hours at RT. A digest of the protocol: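 PLK4 at 1.0 nM in HEPES pH 7.5 buffer with 10 mM MgCl2, 1 mM EGTA, 1 mM DTT, preincubated 15 min at RT with compound. ADP formed quantified by ADP-Glo luminescence after ATP depletion. IC50 from four-parameter non-linear regression.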
On the technique in general: In ADP-Glo the light output rises with the ADP produced.

A further assay concerns CHP134. The experiment in a line: CHP134 CellTiter-Glo (CTG) Assay. It is filed as cell-based. The following applies: Homo sapiens, CHP-134, 120 h; viable cells by CellTiter-Glo after 5 days. A digest of the protocol:
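CHP134 cells were seeded at 200 cells/well for 16 h, then treated in quadruplicate with nine-point 1:3 serial dilutions at 37 °C, 5% CO2. Viable cells were read by CellTiter-Glo luminescence after 5 days, and IC50 values were derived from the dose-response curves.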
For orientation: In ATP-based viability assays light output follows the ATP content of the culture.

The target in assay [1] is T2, human recombinant Aurora B (Homo sapiens, UniProt Q96GD4).
T2 construct: purchased ThermoFisher PR9210B
The experiment in a line: Aurora B Kinase Biochemical Assay (ADP-Glo). The note with it: selectivity ratio; Aurora B 10 nM, 114 μM ATP. A digest of the protocol:
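Aurora B (10 nM) was pre-incubated with compound for 15 min, then reacted with 114 μM ATP and 4.7 μM MBP for 2 h at RT in 50 mM HEPES pH 7.5, 10 mM MgCl2, 1 mM DTT. ADP was read by ADP-Glo luminescence, and IC50 values came from four-parameter fits of 11-point, 3-fold titrations in duplicate.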

T2 sequence (Q96GD4 whole entry): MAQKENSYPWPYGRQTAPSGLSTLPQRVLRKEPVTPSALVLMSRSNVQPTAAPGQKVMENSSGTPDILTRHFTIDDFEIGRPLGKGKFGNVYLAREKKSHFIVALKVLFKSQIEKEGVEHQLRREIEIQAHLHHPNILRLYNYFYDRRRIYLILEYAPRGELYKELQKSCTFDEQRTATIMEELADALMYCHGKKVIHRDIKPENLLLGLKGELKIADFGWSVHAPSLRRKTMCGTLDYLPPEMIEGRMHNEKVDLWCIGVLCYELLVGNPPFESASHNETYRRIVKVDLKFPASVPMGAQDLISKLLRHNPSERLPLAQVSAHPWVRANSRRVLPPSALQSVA

What is called IC50 is the concentration that gives 50% inhibition. Take `COc1ccc2c(c1)[C@]1(C[C@H]1c1ccc3c(Nc4ccc(-c5nnn(C)n5)cc4OC)n[nH]c3c1)C(=O)N2` [Example 17, (1R,2S)-5′-methoxy-2-{3-[2-methoxy-4-(2-methyl-2H-tetrazol-5-yl)anilino]-1H-indazol-6-yl}spiro[cyclopropane-1,3′-indol]-2′(1′H)-one]: the IC50 worked out at 0.002 µM on human recombinant PLK4 and 0.37 µM in the assay on CHP134. The “[Aurora B IC50 (nM)]/[PLK4 IC50 (nM)]” value in assay [1] was 190.
